US9604987B2, “Synthesis of autophagy inducing compound and the uses thereof” (Hong Kong Baptist University, priority 2012, dated 2017)

What was measured:
SH-SY5Y cells = assay: Western blot of autophagy marker LC3-II in SH-SY5Y cells; assay type: cell-based, human; settings: 0-25 μM, 24 hours
Protocol: Native and denatured PAGE and Western blotting analysis. Samples to be run under denaturing conditions were lysed with RIPA lysis buffer (150 mM NaCl, 50 mM Tris-HCl, 0.35% sodium deoxycholate, 1 mM EDTA, 1% NP40, 1 mM PMSF, 5 μg/ml aprotinin, 5 μg/ml leupeptin). Samples for native gels were lysed with detergent-free lysis buffer (50 mM Tris/HCl pH 7.4, 175 mM NaCl, 5 mM EDTA pH 8.0, 1 mM PMSF, 5 μg/ml aprotinin, 5 μg/ml leupeptin), and sheared 5 times through a 28-gauge needle followed by 2 times of sonication for 5 seconds according to previously described protocol. For denaturing, SDS-PAGE was performed using Tris-Glycine SDS running buffer and SDS sample buffer, and for native conditions, native-PAGE was run with detergent-free Tris-Glycine running buffer (BN2007, Invitrogen) and 4× native sample buffer (BN2003, Invitrogen) on a pre-casted native PAGE gel (BN1002BOX, Invitrogen). The proteins on the gels were then transferred to PVDF membrane (RPN303F, GE Healthcare) and processed for immunoblotting. Membranes were blocked with 5% non-fat milk and probed with the appropriate primary and secondary antibodies. The desired bands were visualized using the ECL kit (32106, Pierce). The band density was quantified using the ImageJ program and normalized to that of the control group. […]

[1] = system: α-syn/synphilin-1 aggresomes in N2a cells; assay: α-syn/synphilin-1 aggresome formation in N2a cells; assay type: cell-based, mouse; settings: 25 μM, 48 hours
Protocol: α-syn and synphilin-1 are co-expressed in N2a cells to mimic aggresome formation and are treated with 25 μM Cory B or 5 mM 3-MA for 48 hours. Cells are fixed in 4% paraformaldehyde and analyzed under a fluorescence microscope. […] The inhibition of Cory B clearance of various forms of α-syn and α-syn/synphilin-1 aggresomes in the presence of 3-MA further validates that such clearance is via the autophagy pathway. Data are presented as the mean±SEM from 3 independent experiments (***p<0.001, one-way ANOVA for multiple comparison and Tukey's test as post hoc test).

Beclin-1 = Beclin-1 expression and Beclin 1 siRNA depletion in N2a cells; assay type: cell-based, mouse
Protocol: FIG. 7: Western blot analysis of expression level of phosphorylated mTOR (p-mTOR) or its substrate P70S6K (p-P70S6K) in N2a cells with treatment of 25 μM Cory B or 0.2 μM rapamycin for 6 hours (FIG. 7A); western blot analysis of Beclin 1 expression in N2a cells with non-target or Beclin 1-specific siRNA treatments followed by Cory B (FIG. 7B)
To elucidate the molecular mechanism of Cory B action, the classic autophagy controlling pathway, the mTOR pathway is first examined. […] Several other pathways reported to be involved in the activation of autophagy, including AKT, AMPK, MEK/ERK, JNK, and ER stress pathways, and calcium signaling pathway (data not shown), are also tested.

α-syn oligomers = assay: BiFC-based cell model of α-syn oligomer clearance (flow cytometry); settings: 25 μM, 24 hours
Protocol: Second, the effect of Cory B on α-syn oligomers clearance is tested using a bimolecular fluorescence complementation (BiFC)-based cell model which enables visualization of α-syn oligomers. Two non-fluorescent fragments of GFP, GFP-N terminal fraction and GFP-C terminal fraction, are fused with α-syn protein; interaction of the two fragments reconstitutes the fluorophore (FIG. 5G). The presence of fluorescence signal indicates the formation of α-syn oligomers within cells. Mock transfected cells are used as blanks to gate the fluorescence-positive cells and signals stronger than 10^1 RFU are considered as positive α-syn oligomers formation. Cells are treated with 25 μM Cory B and/or 5 mM 3-MA for 24 hours and harvested for flow cytometry analysis.

[2] = system: mouse primary cortical neurons; assay: Autophagy in primary mouse cortical neurons (LC3-II blot, GFP-LC3 puncta); assay type: cell-based, E17 embryonic ICR mice; settings: 24 hours
Protocol: Primary neuron culture. The E17 embryonic pup brains were dissected and cortices were placed in a Petri dish containing ice cold EBSS, with meninges carefully removed. Tissues were digested in 5 ml of digestion solution (EBSS containing 0.5 mM EDTA (E6758, Sigma), 0.5 mg/ml Papain (3120, Worthington Biochem) and 4 mg/ml L-Cysteine (C7880, Sigma)) at 37° C. for 15 minutes. The tissue was sucked out in 1 ml of digestion solution and mixed with 3 ml of digestion inhibition solution (EBSS containing 5 mg/ml BSA (A2153, Sigma), 5 mg/ml Trypsin inhibitor (T9253, Sigma) and 10 μg/ml DNase (DN25, Sigma)). The mixed tissue solution was thoroughly mixed to dissociate the cells and then transferred to a 50 ml tube through a 70 μm filter. The cells were collected by centrifugation and re-suspended in seeding medium (DMEM containing 10% FBS and 10% horse serum). […]
To further confirm the pro-autophagic effect of Cory B on primary neurons, mouse primary cortical neurons isolated from E17 embryonic ICR mice are used in this study. […] Neurons are fixed in 4% paraformaldehyde and analyzed under a confocal microscope. GFP-LC3 puncta number in each GFP positive neuron is counted and at least 20 neurons in each group is counted. […]

JNPL P301 Tau mice = JNPL P301 Tau mice treated intraperitoneally; assay type: in vivo; settings: 20 mg/kg/d intraperitoneally, three months
Protocol: (§1) N2a Swedish APP cells are incubated with different concentration of Cory and Cory B in the presence or absence of CQ and 3MA. […] Tg2567 APP mice, 3 months old JNPL P301 Tau mice and WT mice intraperitoneally are administrated with 20 mg/kg/d CoryB.

Tg2567 APP mice = Tg2567 APP mice treated intraperitoneally; assay type: in vivo; settings: 20 mg/kg/d intraperitoneally, three months
Protocol: as §1

Compound: CC[C@@H]1CN2CC[C@]3(C(=O)Nc4ccccc43)C2C[C@@H]1C(=COC)C(=O)OC (stereo partly drawn) [Cory B, Corynoxine B]
- LC3-II levels (SH-SY5Y cells): increases levels of LC3-II
- number of α-syn/synphilin-1 aggresomes [1]: dramatically decreases the number of α-syn/synphilin-1 aggresomes
- expression of Beclin-1 (Beclin-1): does not affect the expression of Beclin-1
- Cory B-induced autophagy under Beclin-1 siRNA treatment (Beclin-1; Beclin 1-specific siRNA): completely blocks
- degradation of α-syn oligomers (fluorescence intensity) (α-syn oligomers): promotes degradation of α-syn oligomers
- LC3-II level ([2]; 0-50 μM): dose-dependent increase of LC3-II
- GFP puncta in neurons transfected with GFP-LC3 construct ([2]; 50 μM): induces massive formation of GFP puncta
- total tau (JNPL P301 Tau mice): significantly decrease
- Fl-APP/CTF (Tg2567 APP mice): significantly decrease
